Measurements published in patent US11440931B2, “Crocins compounds and uses thereof” (Jinan University, priority 2016, dated 2022).

Key:
SH-SY5Y nerve cells [1] = assay: L-glutamic acid-damaged SH-SY5Y cell model (MTT); format: cell-based; details: summary in words
Method: (§1) 2.1 Method for Culturing SH-SY5Y Nerve Cells
(§2) The SH-SY5Y nerve cells were cultured in a DMEM culture medium (containing 5% of fetal calf serum in volume fraction) in an incubator containing 5% CO2 at 37° C., while subculturing every 3 to 4 days. Cells in a logarithmic phase were selected for experiments.
2.3 Method for Screening with L-Glutamic Acid-Damaged Models
SH-SY5Y cells were inoculated at a concentration of 5×10^3 in a 96-well plate, and then cultured for 24 h, and 100 μL of a liquid culture medium containing L-glutamic acid and a crocin-like compound was added to a 96-well plate, such that a final concentration of L-glutamic acid was 160 mM and a final medication concentration of the crocin-like compound was 10 μM, 1 μM, 0.1 μM, with each concentration in triplicate, followed by culturing for 24 h. After 24 h, a supernatant was sucked out and discarded, to each well was added 100 μL of MTT (0.5 mg/mL), followed by incubation for 4 h. A supernatant was sucked out and discarded, to each well was added 150 μL of DMSO, followed by shaking for 10 min, and a wavelength of 570 nm was selected to measure a value of absorbancy on a microplate reader^[13]. (Effective rate %=(ODcrocin-like compound−ODmodel)/(ODcontrol−ODmodel)*100).

SH-SY5Y nerve cells [2] = assay: Hydrogen peroxide-damaged SH-SY5Y cell model (MTT); format: cell-based; details: summary in words
Method: as §1, §2
2.2 Method for Screening with Hydrogen Peroxide-Damaged Models
SH-SY5Y cells were inoculated at a concentration of 5×10^3 in a 96-well plate, and then cultured for 24 h, and 100 μL of a liquid culture medium containing H2O2 and a crocin-like compound was added to the 96-well plate, such that a final concentration of H2O2 was 400 μM and a final concentration of the crocin-like compound was 10 μM, 1 μM, 0.1 μM, with each concentration in triplicate, followed by culturing for 24 h. After 24 h, a supernatant was sucked out and discarded, and to each well was added 100 μL of MTT (0.5 mg/mL), followed by incubation for 4 h. A supernatant was sucked out and discarded, to each well was added 150 μL of DMSO, followed by shaking for 10 min, and a wavelength of 570 nm was selected to measure a value of absorbancy on a microplate reader^[12]. (Effective rate %=(ODcrocin-like compound−ODmodel)/(ODcontrol−ODmodel)*100).

PC-12 cells = details: antioxidant effect (GSH increase, inhibition of peroxidized lipid, SOD retained); cited from earlier work

SMILES	protection effect on SY5Y cell damage models induced by L-glutamic acid (SH-SY5Y nerve cells [1])	protection effect on SY5Y cell damage models induced by H2O2 (SH-SY5Y nerve cells [2])	protective effect on PC-12 cells (PC-12 cells)
CC(/C=C/C=C(\C)C(=O)O[C@@H]1OC(CO[C@@H]2OC(CO)[C@@H](O)C(O)C2O)[C@@H](O)C(O)C1O)=C\C=C\C=C(C)\C=C\C=C(/C)C(=O)O[C@@H]1[C@@H](O)C[C@](O)(C(=O)O)C[C@H]1OC(=O)/C=C/c1ccc(O)c(O)c1 (stereo in doubt) [GJ-1, neocrocin B]	more excellent protection effects		
COc1cc(/C=C/C(=O)OCC2O[C@@H](OCC3O[C@@H](OC(=O)/C(C)=C/C=C/C(C)=C/C=C/C=C(C)/C=C/C=C(\C)C(=O)O)C(O)C(O)[C@@H]3O)C(O)C(O)[C@@H]2O)cc(OC)c1O (stereo partly shown) [GJ-7, neocrocin F]	more excellent protection effects		
CCOC(=O)/C(C)=C/C=C/C(C)=C/C=C/C=C(C)/C=C/C=C(\C)C(=O)O[C@@H]1O[C@H](CO[C@@H]2O[C@H](CO)[C@@H](O)[C@H](O)[C@H]2O)[C@@H](O)[C@H](O)[C@H]1O [GJ-8, neocrocin H]	more excellent protection effects	more excellent protection effects	
CC(/C=C/C=C(\C)C(=O)O)=C\C=C\C=C(C)\C=C\C=C(/C)C(=O)O[C@@H]1OC(CO[C@@H]2OC[C@@H](O)C(O)C2O)[C@@H](O)C(O)C1O (stereo partly shown) [GJ-10, neocrocin J]	more excellent protection effects	more excellent protection effects	
C\C(C=O)=C/C=C/C(C)=C/C=C/C=C(C)/C=C/C=C(\C)C(=O)O[C@@H]1OC(CO[C@@H]2OC(CO)[C@@H](O)C(O)C2O)[C@@H](O)C(O)C1O (stereo partly shown) [GJ-9, neocrocin I]	more excellent protection effects		
COc1cc(/C=C/C(=O)OCC2O[C@@H](OCC3O[C@@H](OC(=O)/C(C)=C/C=C/C(C)=C/C=C/C=C(C)/C=C/C=C(\C)C(=O)O[C@@H]4OC(CO[C@@H]5OC(CO)[C@@H](O)C(O)C5O)[C@@H](O)C(O)C4O)C(O)C(O)[C@@H]3O)C(O)C(O)[C@@H]2O)cc(OC)c1O (stereo partly shown) [GJ-6, neocrocin G]	more excellent protection effects	more excellent protection effects	
CC(/C=C/C=C(\C)C(=O)O[C@@H]1O[C@H](CO[C@@H]2O[C@H](CO)[C@@H](O)[C@H](O)[C@H]2O)[C@@H](O)[C@H](O)[C@H]1O)=C\C=C\C=C(C)\C=C\C=C(/C)C(=O)O[C@@H]1O[C@H](CO[C@@H]2O[C@H](CO)[C@@H](O)[C@H](O)[C@H]2O)[C@@H](O)[C@H](O)[C@H]1O [crocin-1, crocin digentiobioside]			protective effect on PC-12 cells
